Each structure is given as a SMILES string. Several values for one entry are separate records, joined by “and”; a condition that tells them apart may be missing. Equal entries are not always repeated.

A short description of data set [1]: Dissolution rate of tablets of the solid forms in FaSSIF v2 (small-scale dissolution assay, UV quantification, Noyes-Whitney fit). Format: physicochemical. As to conditions: FaSSIF v2 (pH 6.5), 25° C., 120 minutes, 3 mm tablet. The method, then:
1. Molar Extinction Coefficient (MEC) determination in FaSSIF v2 medium
Molar extinction coefficients of pterostilbene and of each coformer were determined by UV-metric titration using a GlpKaTM titrator (Sirius Analytical Instruments, UK). Briefly, a 10 mM stock solution of sample was prepared in DMSO. […] of sample stock solution and 0.25 mL of a 15 mM potassium phosphate buffer were added to 10 mL of a 0.15 M KCI solution, which in turn contained 17.9 mg of FaSSIF v2 powder. The pH of the sample solution was adjusted to 2 with 0.5 M HCI before starting the titration, and then the titration was done using 0.5 M KOH up to pH 12. The UV absorption spectra (between 250 and 450 nm) of the solution were recorded at each titrant addition by a fiber optic dip-probe. The collected data were refined through the RefinamentPro software, and the pKa values and Molar Extinction Coefficients obtained by Target Factor Analysis.
2. Dissolution Rate experiments • Tablet production: tablets of 3 mm diameter were prepared using a manual hydraulic tablet press (Applied Measurements Ltd, UK). The applied pressure was 100 Kg for 2 min. From 10 to 15 mg of each solid form, pterostilbene or cocrystal, were weighted. The total exposed surface area was 0.5 cm^2. • Medium: FaSSIF v2 (pH 6.5), with corresponding amount of phosphoric (28.4 mM) acid instead of maleic acid. • Dissolution tests were performed with a small-scale dissolution assay installed in a GlpKaTM titrator (Sirius Analytical Instruments, UK). • Dissolution time and temperature: 120 minutes and 25° C. • Procedure: 15 mL of FaSSIF v2 was added into the sample vial containing the tablet. Spectra collection started immediately after. Spectra were recorded every 30 seconds between 250 and 450 nm through a Sirius D-PAS spectrometer with a bifurcated optic fibre dip probe (Hellma Analytics). The medium was stirred at a constant rate.
The concentration of pterostilbene in solution at each time point is determined from the spectroscopic data by applying the Beer-Lambert law, using previously determined molar extinction coefficients of pure pterostilbene. Spectrum regions where signal is saturated (A>1.5) or presenting medium interferences were discarded. Then, the concentration data were converted into absolute sample quantities, and used to generate the graphs showing the sample quantity vs. time.
4. Determination of the dissolution rate
Dissolution rate is obtained through the fit of the first order Noyes-Whitney exponential equation to the data: […]
In this equation, [X]t is the weight in grams of compound in solution at the experiment time (min); S is the extrapolated solubility (g) of pterostilbene; kd is the rate constant for dissolution (min^−1); and to (min) is a term allowing for a temporal offset. Results are calculated using a refinement process in which S, kd and t0 are varied in order to minimize the root mean square deviation between the modelled concentrations and the measured concentrations. The dissolution rate (g min^−1) is given by the product kdS (T. Gravestock et al., 2011).

Data set [2] in a line: Pharmacokinetics of pterostilbene in rat plasma after single oral administration. As to conditions: for Plasma concentration of pterostilbene, Mean (arithmetic) / Plasma concentration of pterostilbene, individual animals 1-5: 20 mg/kg P56-VIII (13.5 mg/kg as pterostilbene) single oral. Format: in vivo, Male Sprague-Dawley rats. On the procedure:
In-life phase • Animals: Male Sprague-Dawley rats (weight: 417.9-458.6 g) • Administration: Oral (single dose) • Dose: 20 mg/kg P56 (pterostilbene, free base) 20 mg/kg P56-VIII (cocrystal of pterostilbene and picolinic acid; 13.5 mg/kg as pterostilbene free base) • Formulation: Suspension (0.5% carboxymethylceluulose, CMC) • Adm. volume: 10 ml/kg • Fed/fasted state: Fasted (at least 8 hours prior dosing) • Sampling: Six blood samples/animal (1, 2, 4, 6, 8 and 24 hours post-adm.) • Plasma samples: Plasma samples using K3-EDTA as anticoagulant.
Samples were immediately frozen at −80° C. until their analysis
Pharmacokinetic analysis was performed by non-compartmental pharmacokinetic analysis using Kinetica v5 software (Alfasoft Limited, Luton, UK). Descriptive statistics was performed using Microsoft Excel spreadsheet 2007 (Microsoft Inc, Redmond, US). Plasma bioanalysis was made by LC-MS/MS.
Concentration values below the lower limit of quantification (BLQ) were set to zero, whereas missing concentration values were not considered for statistical and pharmacokinetic evaluations. All computations used the nominal sampling times, nominal doses and concentrations levels were expressed as free base. The numerical data presented below were computer generated. Because of rounding, recalculation of derived values from individual data presented herein below could, in some instances, yield minor variation.
The area under the plasma concentration-time curve from 0 to t (AUC0-t) was determined by using the trapezoidal rule. […] The terminal half-life was determined according to the following rules: (a) time interval equal to at least 1.5 x t1/2, (b) regression analysis (straight line on the log-transformed scale) contained data from at least 3 different time points in the terminal phase and as many data points as possible (always including the last quantifiable concentration but excluding the Cmax), and (c) the coefficient of determination (r^2) was ≥0.85. If at least one of these three conditions was not fulfilled, the terminal half-life and the parameters depending on t1/2 were listed but flagged as not reliably calculated. If the percentage of extrapolated AUC was more than 20%, the individual AUCinf result were listed but flagged as not reliably calculated. Flagged parameters were not included in descriptive statistics and statistical testing procedures.

[3] abbreviates: 20 mg/kg P56-VIII (13.5 mg as pterostilbene) single oral, fasted male SD rats.
The mark [4] stands for this setting: 20 mg/kg cocrystal (13.5 mg/kg as pterostilbene) vs 20 mg/kg P56, single oral, rats.

In data set [1], `COc1cc(/C=C/c2ccc(O)cc2)cc(OC)c1.COc1cc(/C=C/c2ccc(O)cc2)cc(OC)c1.O=C(O)c1ccccn1` [cocrystal of pterostilbene:picolinic acid (2:1)] gave a dissolution rate of 351.3 ± 18.9 nmol/min.
On the same count and under the same terms, as for `COc1cc(/C=C/c2ccc(O)cc2)cc(OC)c1.COc1cc(/C=C/c2ccc(O)cc2)cc(OC)c1.NCCN` [Pterostilbene:ethylendiamine cocrystal, pterostilbene:ethylendiamine cocrystal (2:1)], the figure is 176.1 ± 12.6 nmol/min; as for `COc1cc(/C=C/c2ccc(O)cc2)cc(OC)c1.ClCCl.Cn1c(=O)c2[nH]cnc2n(C)c1=O` [Pterostilbene:theophylline cocrystal, cocrystal solvate of pterostilbene:theophylline: dichloromethane (1:1:1)], 33.5 ± 6.7 nmol/min.
As to `COc1cc(/C=C/c2ccc(O)cc2)cc(OC)c1` [Pterostilbene (Form VI), Form VI of pterostilbene], the dissolution rate in data set [1] stood at 7.4 ± 1.8 nmol/min.
On the same count and under the same terms, the figure for `COc1cc(C=Cc2ccc(O)cc2)cc(OC)c1.COc1cc(C=Cc2ccc(O)cc2)cc(OC)c1.NCCN.O.O` [pterostilbene:ethylendiamine:H2O cocrystal hydrate (2:1:2)] is 230.4 ± 26.59 nmol/min; for `COc1cc(/C=C/c2ccc(O)cc2)cc(OC)c1.Cn1c(=O)c2c(ncn2C)n(C)c1=O` [Pterostilbene:caffeine cocrystal, reference compound] it is 45.4 ± 9.2 nmol/min.
For the compound `COc1cc(/C=C/c2ccc(O)cc2)cc(OC)c1.O=C(O)c1ccccn1` [cocrystal of pterostilbene:picolinic acid (1:1)], in data set [2] (setting [3]), the “AUC0-t, Mean” value is 4699 ng·h/mL; the “AUC0-t, individual animals 1-5” value was 4384 ng·h/mL and 3776 ng·h/mL and 4059 ng·h/mL and 9824 ng·h/mL and 1452 ng·h/mL; the “AUCinf, Mean” value turned out to be 4772 ng·h/mL; the “AUCinf, individual animals 1-5” value was 4422 ng·h/mL and 3805 ng·h/mL and 4178 ng·h/mL and 9855 ng·h/mL and 1602 ng·h/mL. In data set [2] (setting [3]), the “Cmax, Mean” value was determined as 567.8 ng/mL; the “Cmax, individual animals 1-5” value is 695.2 ng/mL and 337.4 ng/mL and 513.3 ng/mL and 991.8 ng/mL and 301.1 ng/mL; the “t1/2 (terminal elimination half-life), Mean” value turned out to be 3.3 h; the “t1/2 (terminal elimination half-life), individual animals 1-5” value is 3.7 h and 3.2 h and 5.1 h and 2.8 h and 1.9 h. For the same compound, in data set [2] (setting [3]), the “tmax, Median” value amounted to 2 h; the “tmax, individual animals 1-5” value was 1 h and 6 h and 4 h and 2 h. Besides, in data set [2] (fasted male SD rats, 1 h), the “Plasma concentration of pterostilbene, Mean (arithmetic)” value (shortened to “Plasma concentration … (arithmetic)”) is 504.7 ng/mL; the “Plasma concentration of pterostilbene, individual animals 1-5” value is 513.3 ng/mL and 980.0 ng/mL and 189.8 ng/mL and 695.2 ng/mL and 145.5 ng/mL. Besides, in data set [2] (fasted male SD rats, 2 h), the “Plasma concentration … (arithmetic)” value was 514.3 ng/mL; the “Plasma concentration of pterostilbene, individual animals 1-5” value is 462.8 ng/mL and 952.8 ng/mL and 301.1 ng/mL and 587.9 ng/mL and 266.9 ng/mL. In data set [2] (fasted male SD rats, 4 h), the “Plasma concentration … (arithmetic)” value turned out to be 451.7 ng/mL; the “Plasma concentration of pterostilbene, individual animals 1-5” value is 262.6 ng/mL and 991.8 ng/mL and 224.7 ng/mL and 538.5 ng/mL and 240.8 ng/mL. Moreover, in data set [2] (fasted male SD rats, 6 h), the “Plasma concentration … (arithmetic)” value turned out to be 305.6 ng/mL; the “Plasma concentration of pterostilbene, individual animals 1-5” value was 150.6 ng/mL and 663.7 ng/mL and 153.8 ng/mL and 222.5 ng/mL and 337.4 ng/mL. Further, in data set [2] (fasted male SD rats, 8 h), the “Plasma concentration … (arithmetic)” value turned out to be 214.8 ng/mL; the “Plasma concentration of pterostilbene, individual animals 1-5” value was 210.5 ng/mL and 449.2 ng/mL and 53.5 ng/mL and 136.4 ng/mL and 224.6 ng/mL. The “Plasma concentration … (arithmetic)” value in data set [2] (fasted male SD rats, 24 h) came out at 7.54 ng/mL. The “Plasma concentration of pterostilbene, individual animals 1-5” value in data set [2] (fasted male SD rats, 24 h, BLQ = <5 ng/ml) is 16.4 ng/ml and 7.67 ng/ml and BLQ and 7.16 ng/ml and 6.50 ng/ml. Also, in data set [2] (setting [4]), the “increase in AUCinf compared to the P56 formulation” value is “about 10 fold” and the “increase in Cmax compared to the P56 formulation” value is on record as “around 6 fold”. Besides, the dissolution rate in data set [1] is listed as 427.8 ± 29.5 nmol/min.
Consider `COc1cc(/C=C/c2ccc(O)cc2)cc(OC)c1.COc1cc(/C=C/c2ccc(O)cc2)cc(OC)c1.Cc1cnc(C)c(C)n1` [cocrystal of pterostilbene:2,3,5-trimethylpirazine (2:1)], for which the dissolution rate in data set [1] is listed as 52.0 ± 5.8 nmol/min.
